“And” between values parts separate entries of the source, which are not always exact repeats. Equal entries are not always repeated. Toxic doses and inconclusive results are not listed. No stated cut-off is given here; in the data, active means T/C of 150% or more; inactive means T/C below 125%.
Tested on: L1210 leukemia ip in BDF1 mice, survival T/C
Assay: NCI In Vivo Anticancer Drug Screen. Data for tumor model L1210 Leukemia (intraperitoneal) in B6D2F1 (BDF1) mice
Conditions: endpoint: mean survival time, higher = longer survival
Summary of the method: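 Value reflects the ratio of survival in compound-treated mice to survival in vehicle-treated controls, with both groups carrying the same transplanted tumor.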

[1] = dose: 100.0 mg/kg/injection, schedule: Q04DX003 (ip), vehicle: saline with Tween-80
[2] = dose: 200.0 mg/kg/injection, schedule: Q04DX003 (ip), vehicle: saline with Tween-80
[3] = dose: 400.0 mg/kg/injection, schedule: Q04DX003 (ip), vehicle: saline with Tween-80
[4] = dose: 100.0 mg/kg/injection, schedule: Q04DX003 (ip), vehicle: saline
[5] = dose: 200.0 mg/kg/injection, schedule: Q04DX003 (ip), vehicle: saline
[6] = dose: 400.0 mg/kg/injection, schedule: Q04DX003 (ip), vehicle: saline
[7] = dose: 100.0 mg/kg/injection, schedule: Q01DX009 (ip), vehicle: saline with Tween-80
[8] = dose: 200.0 mg/kg/injection, schedule: Q01DX009 (ip), vehicle: saline with Tween-80
[9] = dose: 100.0 mg/kg/injection, schedule: Q04DX003 (ip), vehicle: Klucel (hydroxypropylcellulose) (HPC)
[10] = dose: 200.0 mg/kg/injection, schedule: Q04DX003 (ip), vehicle: Klucel (hydroxypropylcellulose) (HPC)
[11] = dose: 400.0 mg/kg/injection, schedule: Q04DX003 (ip), vehicle: Klucel (hydroxypropylcellulose) (HPC)
[12] = dose: 200.0 mg/kg/injection, schedule: Q04DX002 (ip), vehicle: Klucel (hydroxypropylcellulose) (HPC)
[13] = dose: 10.0 mg/kg/injection, schedule: Q01DX001 (ip), vehicle: saline
[14] = dose: 20.0 mg/kg/injection, schedule: Q01DX001 (ip), vehicle: saline
[15] = dose: 40.0 mg/kg/injection, schedule: Q01DX001 (ip), vehicle: saline
[16] = dose: 100.0 mg/kg/injection, schedule: Q01DX001 (ip), vehicle: Klucel (hydroxypropylcellulose) (HPC)
[17] = dose: 200.0 mg/kg/injection, schedule: Q01DX001 (ip), vehicle: Klucel (hydroxypropylcellulose) (HPC)

Measured: T/C

COC(=O)c1ccc(N=Nc2ncc(CCNC(=O)C(F)(F)F)[nH]2)cc1
inactive: dose: 100.0 mg/kg/injection, schedule: Q01DX001 (ip), vehicle: saline with Tween-80 97 % of control | dose: 200.0 mg/kg/injection, schedule: Q01DX001 (ip), vehicle: saline with Tween-80 96 % of control | dose: 400.0 mg/kg/injection, schedule: Q01DX001 (ip), vehicle: saline with Tween-80 111 % of control

Nc1ccc(O)c2ccccc12
inactive: dose: 6.25 mg/kg/injection, schedule: Q04DX003 (ip), vehicle: other 97 % of control

CN(C)c1ccc(C(=C2C=CC(=[N+](C)C)C=C2)c2ccc(N(C)C)cc2)cc1
inactive: dose: 100.0 mg/kg/injection, schedule: Q01DX001 (ip), vehicle: saline 97 % of control | dose: 200.0 mg/kg/injection, schedule: Q01DX001 (ip), vehicle: saline 105 % of control

CCCC(C)C(C#N)C(=O)OCC (stereo unspecified)
inactive: [1] 106 % of control | [2] 101 % of control | [3] 105 % of control

CC[C@@]1(O)C[C@H](OC2CC(N(C)C)C(OC3CC(O)C(OC4CCC(=O)C(C)O4)C(C)O3)C(C)O2)c2c(cc3c(c2O)C(=O)c2c(O)ccc(O)c2C3=O)[C@H]1C(=O)OC (stereo partly specified)
inactive: dose: 0.5 mg/kg/injection, schedule: Q01DX003 (ip), vehicle: saline 111 % of control | dose: 0.59 mg/kg/injection, schedule: Q01DX001 (ip), vehicle: saline 107 % of control | dose: 0.59 mg/kg/injection, schedule: Q01DX009 (ip), vehicle: saline 111 % of control | dose: 0.59 mg/kg/injection, schedule: Q04DX003 (ip), vehicle: saline 109 % of control | dose: 0.65 mg/kg/injection, schedule: Q01DX009 (ip), vehicle: water 122 % of control | dose: 0.75 mg/kg/injection, schedule: Q01DX009 (ip), vehicle: saline 121 % of control | dose: 0.89 mg/kg/injection, schedule: Q01DX001 (ip), vehicle: saline 107 % of control | dose: 0.89 mg/kg/injection, schedule: Q01DX009 (ip), vehicle: saline 113 % of control | dose: 0.89 mg/kg/injection, schedule: Q04DX003 (ip), vehicle: saline 105 % of control | dose: 1.0 mg/kg/injection, schedule: Q01DX003 (ip), vehicle: saline 113 % of control | dose: 1.0 mg/kg/injection, schedule: Q01DX009 (ip), vehicle: saline 119 % of control | dose: 1.04 mg/kg/injection, schedule: Q04DX003 (ip), vehicle: water 112 % of control | dose: 1.33 mg/kg/injection, schedule: Q01DX001 (ip), vehicle: saline 102 % of control | dose: 1.33 mg/kg/injection, schedule: Q01DX009 (ip), vehicle: saline 120 % of control | dose: 1.33 mg/kg/injection, schedule: Q04DX003 (ip), vehicle: saline 111 % of control | dose: 1.73 mg/kg/injection, schedule: Q04DX003 (ip), vehicle: water 112 % of control | dose: 2.0 mg/kg/injection, schedule: Q01DX001 (ip), vehicle: saline 109 % of control | dose: 2.0 mg/kg/injection, schedule: Q04DX003 (ip), vehicle: saline 107 % of control | dose: 2.59 mg/kg/injection, schedule: Q01DX001 (ip), vehicle: water 112 % of control | dose: 3.0 mg/kg/injection, schedule: Q01DX001 (ip), vehicle: saline 117 % of control | dose: 3.0 mg/kg/injection, schedule: Q01DX009 (ip), vehicle: saline 103 % of control | dose: 3.0 mg/kg/injection, schedule: Q01DX009 (ip), vehicle: water 96 % of control | dose: 12.0 mg/kg/injection, schedule: Q01DX001 (ip), vehicle: water 113 % of control | dose: 20.0 mg/kg/injection, schedule: Q01DX001 (ip), vehicle: water 98 % of control

CCOc1ccc(=O)[nH]n1
inactive: dose: 100.0 mg/kg/injection, schedule: Q01DX009 (ip), vehicle: saline 93 % of control | [4] 105 % of control | dose: 200.0 mg/kg/injection, schedule: Q01DX009 (ip), vehicle: saline 93 % of control | [5] 101 % of control | dose: 400.0 mg/kg/injection, schedule: Q01DX009 (ip), vehicle: saline 95 % of control | [6] 115 % of control

Cc1cc(N(CCCOS(C)(=O)=O)CCCOS(C)(=O)=O)ccc1C=Nc1ccc(-c2csc(COc3ccc(Cl)cc3Cl)n2)cc1
inactive: [7] 91 % of control | [8] 96 % of control | dose: 400.0 mg/kg/injection, schedule: Q01DX009 (ip), vehicle: saline with Tween-80 94 % of control

CC(=N\NC(N)=S)/C(=N/NC(N)=S)c1ccccc1
inactive: dose: 15.0 mg/kg/injection, schedule: Q01DX Z (ip), vehicle: carboxymethylcellulose (CMC) 107 % of control | dose: 30.0 mg/kg/injection, schedule: Q01DX Z (ip), vehicle: carboxymethylcellulose (CMC) 97 % of control | dose: 60.0 mg/kg/injection, schedule: Q01DX Z (ip), vehicle: carboxymethylcellulose (CMC) 95 % of control and 90 % of control | dose: 120.0 mg/kg/injection, schedule: Q01DX Z (ip), vehicle: carboxymethylcellulose (CMC) 93 % of control and 91 % of control | dose: 120.0 mg/kg/injection, schedule: Q01DX Z (oral), vehicle: carboxymethylcellulose (CMC) 110 % of control | dose: 240.0 mg/kg/injection, schedule: Q01DX Z (oral), vehicle: carboxymethylcellulose (CMC) 100 % of control | dose: 480.0 mg/kg/injection, schedule: Q01DX Z (ip), vehicle: carboxymethylcellulose (CMC) 88 % of control | dose: 480.0 mg/kg/injection, schedule: Q01DX Z (oral), vehicle: carboxymethylcellulose (CMC) 115 % of control | dose: 960.0 mg/kg/injection, schedule: Q01DX Z (oral), vehicle: carboxymethylcellulose (CMC) 104 % of control

CCCCCCCCCCCCCCOc1ccc(Cc2ccccc2)cc1
inactive: [9] 91 % of control | [10] 90 % of control | [11] 88 % of control

Cn1c(=O)c2[nH]c(Br)nc2n(C)c1=O
inactive: dose: 100.0 mg/kg/injection, schedule: Q01DX009 (ip), vehicle: Klucel (hydroxypropylcellulose) (HPC) 90 % of control | [9] 98 % of control | dose: 200.0 mg/kg/injection, schedule: Q01DX009 (ip), vehicle: Klucel (hydroxypropylcellulose) (HPC) 93 % of control | [10] 111 % of control | [11] 106 % of control

N#Cc1c(C#N)c(N)n(N)c1N
inactive: [12] 114 % of control

OC(c1cccc(C(O)(C(F)(F)F)C(F)(F)F)c1)(C(F)(F)F)C(F)(F)F
inactive: dose: 5.0 mg/kg/injection, schedule: Q01DX001 (ip), vehicle: saline 97 % of control | [13] 92 % of control | [14] 100 % of control | [15] 93 % of control

CC(C)(C)C(=O)Nc1ccc(NS(=O)(=O)c2ccccc2)cc1
inactive: [1] 102 % of control | [2] 89 % of control | [3] 88 % of control

C[n+]1ccc(Cl)c2ccc(Cl)cc21
inactive: [13] 100 % of control | [14] 102 % of control | [15] 102 % of control

Nc1c([N+](=O)[O-])cc(Cl)c(Cl)c1F
inactive: dose: 100.0 mg/kg/injection, schedule: Q04DX002 (ip), vehicle: Klucel (hydroxypropylcellulose) (HPC) 101 % of control | [12] 96 % of control | dose: 400.0 mg/kg/injection, schedule: Q04DX002 (ip), vehicle: Klucel (hydroxypropylcellulose) (HPC) 96 % of control

CCOC(=O)CSc1nc(N)cc(=O)[nH]1
inactive: dose: 50.0 mg/kg/injection, schedule: Q01DX001 (ip), vehicle: Klucel (hydroxypropylcellulose) (HPC) 110 % of control | [16] 117 % of control | [17] 110 % of control

CCOC(=O)CNC(=O)NCc1ccc2c(c1)OCO2
inactive: [7] 98 % of control | [8] 90 % of control

O=C(/C(=N\N=C\c1c(O)ccc2ccccc12)c1ccccc1)c1ccccc1
inactive: [1] 96 % of control | [2] 98 % of control | [3] 94 % of control

Cc1ccc(S(=O)(=O)NN=C(C2=CCCCC2)C2=CCCCC2)cc1
inactive: [4] 94 % of control | [5] 93 % of control | [6] 93 % of control

O=C(COc1ccc(Cl)c(Cl)c1)NCCc1cc[n+](Cc2ccc(Cl)c(S(=O)(=O)F)c2)cc1
inactive: [16] 96 % of control | [17] 94 % of control
